test system: U937 cells; test: Inhibition of TNF-α-induced necroptosis of U937 cells (CCK-8 assay); assay type: cell-based, human; conditions: Homo sapiens, U-937, TNF-α 20 ng/mL + BV6 2 µM + Z-VAD-FMK 20 µM, 18 h
Outline: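 U937 cells (3.6 × 10^4/well) rested 6 h, then exposed to TNF-α 20 ng/mL, BV6 2 µM and Z-VAD-FMK 20 µM plus compound (8-point 3-fold series, 1000–0.46 nM, duplicate) for 18 h. Viability by CCK-8, absorbance at 450 nm after 2-4 h at 37 °C; EC50 calculated.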

Compound | EC50 [nM]
CN1C(=O)[C@@H](NC(=O)c2nnc(Cc3ccccc3)[nH]2)COc2ccccc21 [GSK2982772, (S)-5-benzyl-N-(5-methyl-4-oxo-2,3,4,5-tetrahydrobenzo[b][1,4]oxazepin-3-yl)-4H-1,2,4-triazole-3-carboxamide, reference compound] | 10 to 100
Cn1cc(C#Cc2cc3c4c(c2)CCN4C(=O)C(NC(=O)c2ncn(Cc4c(F)cccc4F)n2)CC3)cn1 (stereo not drawn) [III-1, 1-(2,6-difluorobenzyl)-N-(9-((1-methyl-1H-pyrazol-4-yl)ethynyl)-4-oxo-1,2,3,4,6,7-hexahydroazepino[3,2,1-hi]indol-3-yl)-1H-1,2,4-triazole-3-carboxamide] | < 5
Cn1cc(C#Cc2cc3c4c(c2)CCN4C(=O)C(NC(=O)c2ncn(Cc4cc(F)ccc4F)n2)CC3)cn1 (stereo not drawn) [III-10, 1-(2,5-difluorobenzyl)-N-(9-((1-methyl-1H-pyrazol-4-yl)ethynyl)-4-oxo-1,2,3,4,6,7-hexahydroazepino[3,2,1-hi]indol-3-yl)-1H-1,2,4-triazole-3-carboxamide] | < 5
Cn1cc(C#Cc2cc3c4c(c2)CCN4C(=O)C(NC(=O)c2ncn(Cc4ccc(F)c(F)c4)n2)CC3)cn1 (stereo not drawn) [III-12, 1-(3,4-difluorobenzyl)-N-(9-((1-methyl-1H-pyrazol-4-yl)ethynyl)-4-oxo-1,2,3,4,6,7-hexahydroazepino[3,2,1-hi]indol-3-yl)-1H-1,2,4-triazole-3-carboxamide] | 5 to 10
O=C(NC1CCc2cc(C#Cc3cnn(C(F)F)c3)cc3c2N(CC3)C1=O)c1ncn(Cc2cc(F)ccc2F)n1 (stereo not drawn) [III-19, 1-(2,5-difluorobenzyl)-N-(9-((1-(difluoromethyl)-1H-pyrazol-4-yl)ethynyl)-4-oxo-1,2,3,4,6,7-hexahydroazepino[3,2,1-hi]indol-3-yl)-1H-1,2,4-triazole-3-carboxamide] | 5 to 10
O=C(NC1CCc2cc(C#Cc3cnn(C(F)F)c3)cc3c2N(CC3)C1=O)c1ncn(Cc2ccccc2F)n1 (stereo not drawn) [III-21, N-(9-((1-(difluoromethyl)-1H-pyrazol-4-yl)ethynyl)-4-oxo-1,2,3,4,6,7-hexahydroazepino[3,2,1-hi]indol-3-yl)-1-(2-fluorobenzyl)-1H-1,2,4-triazole-3-carboxamide] | < 5
C#Cc1cc2c3c(c1)CCN3C(=O)C(NC(=O)c1ncn(Cc3c(F)cccc3F)n1)CC2 (stereo not drawn) [III-26, 1-(2,6-difluorobenzyl)-N-(9-ethynyl-4-oxo-1,2,3,4,6,7-hexahydroazepino[3,2,1-hi]indol-3-yl)-1H-1,2,4-triazole-3-carboxamide] | < 5

same assay, conditions: TNF-α 20 ng/mL + BV6 2 µM + Z-VAD-FMK 20 µM, 18 h

Compound | EC50 [nM]
O=C(NC1CCc2cc(C#Cc3cnn(C(F)F)c3)cc3c2N(CC3)C1=O)c1ncn(Cc2c(F)cccc2F)n1 (stereo not drawn) [III-17, 1-(2,6-difluorobenzyl)-N-(9-((1-(difluoromethyl)-1H-pyrazol-4-yl)ethynyl)-4-oxo-1,2,3,4,6,7-hexahydroazepino[3,2,1-hi]indol-3-yl)-1H-1,2,4-triazole-3-carboxamide] | < 5
N-(9-((1-(difluoromethyl)-1H-pyrazol-4-yl)ethynyl)-4-oxo-1,2,3,4,6,7-hexahydroazepino[3,2,1-hi]indol-3-yl)-1-(4-methylbenzyl)-1H-1,2,4-triazole-3-carboxamide [III-25] | 10 to 100

— EP4772510A2, “BENZAZEPINONE COMPOUND AND USE THEREOF” (HANGZHOU BIO-SINCERITY PHARMA-TECHCO., LTD., priority 2023, dated 2025)
